Assay results taken from EP4799701A2, “PYRIMID-2-YL-PYRAZOLE COMPOUNDS AS IRAK INHIBITORS” (Rigel Pharmaceuticals, Inc., priority 2022, dated 2023).
Values joined by “and” are separate entries in the source; they are usually repeats but may differ in a detail not shown here. Equal values may be shown once.

Legend:
TLR7-induced TNF-α = TLR7-induced TNF-α in human PBMC (resiquimod); type: cell-based; settings: human PBMCs; result in words
Protocol: Assay Protocol: TLR7-induced TNF-α in human Peripheral Blood Mononuclear Cells (PBMC).
• Corning™ Costar™ 96-Well, Cell Culture-Treated, U-Shaped-Bottom Microplate (Fisher, Cat# 07-200-95) • Human PBMC (ALL Cells, Cat# PB002) • Resiquimod (InvivoGen, Cat No. tlrl-r848) • Human TNF-α DuoSet ELISA Kit (R&D Systems, Cat# DY210) • Recombinant Human IFN-β (Peprotech, Cat# 300-02BC) • RPMI with 10% FBS • Axygen 96well, 1.1 mL, sterile (VWR International, Cat# 47734-788)
Human peripheral blood mononuclear cells (PBMC) were seeded at 100,000 cells per well in 100 µL of RPMI with 10% FCS and primed overnight with 8 ng/ml of IFN-β at 37 °C, 5% CO2. Compound was serially diluted in DMSO from 2 mM in 3-fold dilutions, and then diluted 1:100 in RPMI 1640 complete media with 10% FBS (2 x stock). The PBMCs were pre-incubated with test compound for 1 hour at 37 °C, 5% CO2 by adding 100 µL of RPMI media containing 2x concentrated test compound per well (0.5% final DMSO concentration).
The PBMCs were stimulated with resiquimod (10 µL per well of 21x concentrated resiquimod solution in RPMI media to give a final concentration of 0.1 µg/ml) at 37 °C, 5% CO2 for an additional 18 hours. 100 µL of supernatant per well was harvested to measure TNF-α. TNF-α was quantitated using DuoSet ELISA Kit per manufacturer's protocol.

TLR4-dependent = TLR4-dependent cytokine production in mouse macrophages; type: cell-based; settings: result in words
[1] = tested on: IL-1β-induced production of the cytokine IL-6; experiment: IL-1β-induced IL-6 in primary human endothelial cells; type: cell-based; settings: result in words
[2] = Rat brain homogenate binding, equilibrium dialysis (RED); type: in vitro ADME
Protocol: Brain and plasma drug binding were performed by equilibrium dialysis using the Rapid Equilibrium Dialysis (RED) device. Briefly, 300 µL of plasma or brain homogenate (1 brain /3 buffer) containing drug (5 µM) was equilibrated (4-18 h) against 500 µL of buffered saline. After incubation, the concentration of drug in plasma/brain homogenate and buffer was determined by LC-MS/MS.
Two runs of rat brain homogenate binding with I-1 compared to Comparison-1. I-1 is approximately 10-fold more free in rat brain than Comparison-1.

[3] = tested on: TLR4-induced IL-23 and TNF-α; experiment: TLR4 induced TNF-α in THP-1 cells; type: cell-based; settings: human THP-1 cells; result in words
Protocol: Assay Protocol: TLR4 and TLR2 induced cytokines in THP-1 cells. […]
THP-1 cells (100K in 100 µL/well) were primed with 25 ng/mL IFN-γ for 18 hours at 37°C, 5% CO2. […] IL-23p 19 or TNF-α protein in the supernatant were measured by sandwich ELISA. […] The plates were read with a luminometer, and the chemiluminescence values were entered into Athena (Rigel) for curve fitting, EC50 calculation, and database storage.

more free in rat brain than Comparison-1 ([2]; rat brain homogenate): approximately 10 fold | rat brain homogenate binding (free drug) ([2]; two runs, brain homogenate 1 brain /3 buffer, drug 5 µM, 5 µM): 1.06% and 1.43%
Compound: CCO[C@H]1CC[C@H](n2cc(NC(=O)c3csc(-c4cn[nH]c4)n3)c(-c3ncccn3)n2)CC1 [Compound I-1, N-(1-((1r,4r)-4-ethoxycyclohexyl)-3-(pyrimidin-2-yl)-1H-pyrazol-4-yl)-2-(1H-pyrazol-4-yl)thiazole-4-carboxamide]
TLR7-dependent cytokine production (TLR7-induced TNF-α): potent inhibitor | TLR4-dependent cytokine production (TLR4-dependent): potent inhibitor | IL-1β-induced production of the cytokine IL-6 [1]: potently inhibits | TLR4-induced TNF-α production [3]: inhibits
